Data on 105 molecules can be found in PubChem BioAssay AID1996.

In brackets after ≈: the same amount, converted by molar mass.

The conditions of this data set: buffer; pH 7.4; 200.0 µM.
In turn, `COc1ccccc1C(=O)NC1CCN(C(=O)Nc2ccc(C)cc2)CC1` came in with a solubility (kinetic) of 46.8 µg/mL (≈ 127 µM).

With `CCOc1ccccc1C(=O)NC1CCN(Cc2ccccc2)CC1`, the solubility (kinetic) came out at 36.8 µg/mL (≈ 109 µM). To `NC(=O)COc1ccccc1C(=O)NC12CC3CC(CC(C3)C1)C2` belongs 14.2 µg/mL (≈ 43.2 µM); to `COC(=O)c1sccc1NC(=S)N1CCC(C(N)=O)CC1`, 42.5 µg/mL (≈ 130 µM). Molecule `COc1ccc(CN2CCc3ccccc3C2)c(OC)c1` registered a solubility (kinetic) of 29.6 µg/mL (≈ 104 µM). Molecule `COc1ccc(NC(=O)Nc2cc(C(C)(C)C)on2)cc1OC` showed a kinetic solubility greater than 47.9 µg/mL. As to `CCC(=O)NCCc1nc2cc(NC(=O)Nc3ccccc3)ccc2n1C`, the solubility (kinetic) is greater than 54.8 µg/mL.

As to `CC1CCN(Cc2cc(=O)oc3ccc4ccccc4c23)CC1`, the solubility (kinetic) came to 2.3 µg/mL (≈ 7.48 µM).

Turning to `COc1ccc(-n2c(-c3ccccc3)nc3ccccc3c2=O)cc1`, the solubility (kinetic) stood at 3.3 µg/mL (≈ 10 µM). Turning to `COc1cccc(CNCC(=O)NC(=O)NC2CCCC2)c1.O=C(O)C(=O)O`, the solubility (kinetic) is greater than 59.3 µg/mL.

In turn, `Cc1cc(C=O)c(C)n1-c1ccc2c(c1)OCO2` had a kinetic solubility of 24.6 µg/mL (≈ 101 µM). `Cc1ccc(C)c2c1c1ccccc1n2C` displayed a solubility (kinetic) of 1.1 µg/mL (≈ 5.26 µM). Regarding `COc1ccc(NC(=S)NCCCN2CCCC2)cc1`, the kinetic solubility was greater than 44 µg/mL. Molecule `CNc1ccc(Br)cc1C(O)c1ccccc1` (stereo not given) returned a kinetic solubility of 34.7 µg/mL (≈ 119 µM). The molecule `Cc1ccc(NC(=O)CCN2CCC(Cc3ccccc3)CC2)cc1` had a solubility (kinetic) of 22.6 µg/mL (≈ 67.2 µM). In the case of `CCCCC(=O)NNC(=O)N1c2ccccc2Sc2ccccc21`, the solubility (kinetic) is greater than 51.2 µg/mL.

In turn, `O=C(NC1CC1)C1CC(=O)N(c2cccc(Cl)c2)C1` (stereo not given) had a solubility (kinetic) greater than 41.8 µg/mL.

`Cc1c(Cl)cccc1NC(=O)CCCN1C(=O)c2cccnc2C1=O` had a kinetic solubility of 39.5 µg/mL (≈ 110 µM).

Regarding `COc1cc(SC)ccc1C(=O)Nc1ccccn1`, the kinetic solubility was 9 µg/mL (≈ 32.8 µM). On to `COc1cccc(NC(=O)CN2CCCCCC2)c1.Cl`, for which the kinetic solubility amounted to 44.1 µg/mL. The molecule `Cc1noc(C)c1COc1ncnc2ccccc12` displayed a solubility (kinetic) greater than 38.3 µg/mL. On to `O=C1OCc2ccc(NC(=O)c3sccc3Cl)cc21`, for which the solubility (kinetic) was less than 0.6 µg/mL. Molecule `CCOC(=O)C1=C(CBr)NC(=O)NC1C` (stereo not given) registered a solubility (kinetic) greater than 41.6 µg/mL. In the case of `O=[N+]([O-])c1ccccc1CSc1ccccn1` it was 13.7 µg/mL (≈ 55.6 µM); in that of `N#CCCC(CCC#N)C1=NCCc2ccccc21`, 36.4 µg/mL (≈ 145 µM).

The molecule `CN=C1S/C(=C\c2ccc(SC)cc2)C(=O)N1C` returned a kinetic solubility of 1.4 µg/mL (≈ 5.03 µM). Compared with the last molecule, the solubility kinetic is about 26-fold lower.

Consider `Cl.NC(Cc1nc2ccccc2[nH]1)c1ccc(Cl)cc1` (stereo not given), for which the solubility (kinetic) came to 37.7 µg/mL.

For the molecule `Cc1cccc(NC(=O)CSCC(=O)NCc2ccco2)c1`, the solubility (kinetic) is greater than 47.8 µg/mL.

As to `Cc1ccc2oc(C(=O)NC3CCS(=O)(=O)C3)c(C)c2c1` (stereo not given), the solubility (kinetic) was 27.5 µg/mL (≈ 89.5 µM). As to `CC1CC(C#N)N(N(C)C)C1=C(C#N)C#N` (stereo not given), the solubility (kinetic) is greater than 32.3 µg/mL. Consider `Cc1cccc2nc3c(nc12)CCCC3`, for which the kinetic solubility turned out to be 6.4 µg/mL (≈ 32.3 µM).

For `O=C(Nc1ccccc1NS(=O)(=O)c1ccc(F)cc1)C1CCC1`, the kinetic solubility was 21.1 µg/mL (≈ 60.6 µM). Against the preceding molecule, the solubility kinetic is about 3.3-fold higher.

In the case of `O=C(O)c1ccn(COc2ccc(Br)cc2)n1`, the kinetic solubility was greater than 44.6 µg/mL.

As to `N#CN/C(=N\S(=O)(=O)c1ccccc1)c1ccccc1`, the solubility (kinetic) is 32.3 µg/mL (≈ 113 µM).

The molecule `Cc1cc(NC(=O)CSCc2ccc([N+](=O)[O-])cc2)no1` displayed a solubility (kinetic) of 24.6 µg/mL (≈ 80 µM).

`CC1=C(C)CC(C(=O)NCc2cccc(Cl)c2)C(C(=O)O)C1` (stereo not given) displayed a kinetic solubility greater than 48.3 µg/mL. In turn, `O=C(Nc1cccc(Cl)c1)OCCOc1ccccc1` had a solubility (kinetic) of less than 0.6 µg/mL. The molecule `CC(=O)c1cccc(NC(=O)C2CC(=O)N(C3CCCC3)C2)c1` (stereo not given) returned a kinetic solubility greater than 47.2 µg/mL. To `CC(C)C1Oc2ccccc2N(CC(=O)N(C)C2CCCCC2)C1=O` (stereo not given) belongs greater than 51.7 µg/mL.

Turning to `COc1ccc(CN=Cc2c(C(=O)O)[nH]c3ccccc23)cc1`, the solubility (kinetic) is greater than 46.3 µg/mL. In the case of `CNC(=O)COc1ccc(Nc2nnc(C)c3ccccc23)cc1.Cl` it was greater than 53.8 µg/mL; in that of `COc1cccc(C(=O)Nc2ccc(NC(=O)C3CCCCC3)nc2)c1`, 2 µg/mL (≈ 5.66 µM).

`O=C(O)c1ccc2c(=O)[nH]c(CCl)nc2c1` gave a solubility (kinetic) greater than 35.8 µg/mL. As for `C/C=C/C(=O)OCC(=O)Nc1cccc(F)c1`, the solubility (kinetic) was greater than 35.6 µg/mL. On to `O=C(c1ccc(F)cc1F)N1CCN(c2ccccn2)CC1`, for which the kinetic solubility is greater than 45.5 µg/mL. Regarding `CCOC(=O)c1c(C)nc(C)c(C(=O)OCC)c1-c1ccco1`, the kinetic solubility is greater than 47.6 µg/mL. `COc1ccc(NC(=O)Cn2c(C)csc2=O)c(OC)c1` gave a solubility (kinetic) greater than 46.3 µg/mL. `Cc1cccc(SCC(=O)Nc2ccccc2[N+](=O)[O-])c1` registered a kinetic solubility of 3.7 µg/mL (≈ 12.2 µM).

In the case of `O=S(=O)(NCCc1c[nH]c2ccccc12)c1ccccc1`, the kinetic solubility is greater than 45.1 µg/mL.

Consider `CCc1oc(C(=O)OC)cc1CSC(=N)N.Cl`, for which the kinetic solubility came to 41.4 µg/mL. Regarding `COc1cccc2c(O)c(-c3ccccc3)c(=O)[nH]c12`, the kinetic solubility is greater than 40.1 µg/mL. Turning to `O=C(c1cccc([N+](=O)[O-])c1)c1ccc2c(c1)OCCOCCOCCO2`, the solubility (kinetic) is greater than 56 µg/mL. Consider `Cc1cc(Cl)ccc1NC(=O)CCC(=O)N/N=C/c1cccnc1`, for which the kinetic solubility is greater than 51.7 µg/mL. In turn, `N#Cc1cccc2cccc(S(=O)(=O)N3CCOCC3)c12` displayed a kinetic solubility of 14.9 µg/mL (≈ 49.3 µM). In turn, `Cc1cccnc1NC(=O)C1CCC1` displayed a kinetic solubility of 23.4 µg/mL (≈ 123 µM). In turn, `O=C(O)/C=C/c1ccc(S(=O)(=O)Nc2ccc3[nH]c(=O)[nH]c3c2)cc1` displayed a solubility (kinetic) greater than 53.9 µg/mL. In the case of `Cc1ccc(/C(=N/Nc2ncnc3ccccc23)C(=O)O)cc1` it was greater than 45.9 µg/mL. To `Fc1ccc(COc2ccc(C(=S)N3CCCC3)cc2)cc1` belongs less than 0.7 µg/mL; to `CN(C)c1ccc(NC(=O)C[n+]2ccccc2)cc1.[Cl-]`, greater than 43.8 µg/mL; to `NC1=NC(=O)/C(=C\c2ccco2)S1`, greater than 29.1 µg/mL. As for `Fc1cccc(F)c1-c1nc(-c2ccncc2)no1`, the solubility (kinetic) came to 14.7 µg/mL (≈ 56.7 µM). For the molecule `CC1CN(CCc2ccccc2)C(C)C/C1=N/O` (stereo not given), the kinetic solubility turned out to be 32 µg/mL (≈ 130 µM). In turn, `COC(=O)c1ccc(NC(=O)[C@H](C)NC(N)=O)cc1` registered a kinetic solubility greater than 39.8 µg/mL. In the case of `CCc1ccc(C(C)NC(=S)NCc2ccc(F)cc2)cc1` (stereo not given) it was 1 µg/mL (≈ 3.16 µM).

For the molecule `COC(=O)c1ccc(C(=O)Nc2ccc3c(c2)C(=O)NC3=O)cc1`, the kinetic solubility is less than 0.3 µg/mL.

With `CCOC(=O)Cc1csc(NC(=O)CN2CCOCC2)n1`, the kinetic solubility was found to be 40.1 µg/mL (≈ 128 µM). As for `Cc1ccc(C(=O)NC2CC3CCC(C2)N3)cc1` (stereo not given), the kinetic solubility is greater than 36.7 µg/mL.

On to `COc1ccccc1C(=O)CSc1cccc[n+]1[O-]`, for which the solubility (kinetic) worked out at 14.4 µg/mL (≈ 52.3 µM). `CN(C)C(=O)c1cc(C(=O)Cc2ccccc2)c[nH]1` showed a kinetic solubility of 37.7 µg/mL (≈ 147 µM).

As to `COc1ccc(NC(=O)COc2ccccc2)cc1NC(=O)c1ccco1`, the kinetic solubility is 1.2 µg/mL (≈ 3.28 µM). As for `Fc1ccccc1N1CCN(c2ncnc3nc[nH]c23)CC1`, the kinetic solubility stood at 1.3 µg/mL (≈ 4.36 µM).

`N#Cc1cc(Sc2ccccn2)c([N+](=O)[O-])cc1C#N` displayed a kinetic solubility greater than 42.3 µg/mL.

`CC(=O)Nc1ccc(OCCOc2ccccc2C(C)=O)cc1` gave a solubility (kinetic) greater than 47 µg/mL. In the case of `O=C(O)/C=C/C(=O)Nc1ccc(Cl)c(C(=O)O)c1` it was 38 µg/mL (≈ 141 µM); in that of `O=[N+]([O-])/C=C\c1ccc(N2CCOCC2)cc1`, 16.5 µg/mL (≈ 70.4 µM); in that of `CN(C(=O)COc1ccc(Cl)cc1)C1(C)CCS(=O)(=O)C1` (stereo not given), greater than 49.8 µg/mL. Molecule `COc1cc(/C=C/C(=O)OCC(=O)Nc2ccc3c(c2)OCO3)ccc1O` returned a solubility (kinetic) of 15.5 µg/mL (≈ 41.7 µM).

As for `CCOC(=O)NC(=O)CN1C(=O)NC2(CCc3ccccc32)C1=O` (stereo not given), the kinetic solubility is greater than 49.7 µg/mL. As to `CCN(CC(=O)NCc1cccs1)C(=O)c1cc(=O)[nH]c2ccccc12`, the solubility (kinetic) was greater than 55.4 µg/mL. `CCOc1ccc(C2(C)NC(=O)N(CCN(C)C)C2=O)cc1` (stereo not given) displayed a kinetic solubility of 38.1 µg/mL (≈ 125 µM). In turn, `O=C(Cc1ccc(Br)cc1)NCCN1CCOCC1` gave a kinetic solubility greater than 49.1 µg/mL. Regarding `O=c1c2ccccc2ncn1-c1ccc([N+](=O)[O-])cc1Cl`, the kinetic solubility amounted to 17 µg/mL (≈ 56.3 µM).

`CC1CC(=O)Nc2ccccc2N1S(=O)(=O)c1ccc(C#N)cc1` (stereo not given): the kinetic solubility was determined as 2.7 µg/mL (≈ 7.91 µM). `Cc1occc1C(=O)Nc1c(Cl)cccc1Cl` displayed a kinetic solubility of 37.1 µg/mL (≈ 137 µM).

The molecule `OCc1ccc(OCCCOc2cccc3cccnc23)cc1` gave a solubility (kinetic) of 30.5 µg/mL (≈ 98.6 µM). To `N/C(=N\OC(=O)C(c1ccccc1)c1ccccc1)c1ccncc1` belongs 47.5 µg/mL (≈ 143 µM); to `O=C(O)CC(c1ccccc1)N1C(=O)c2ccccc2C1=O` (stereo not given), 43.9 µg/mL (≈ 149 µM). Molecule `CC(C)c1ccc(C(=O)NCCCN2CCOCC2)cc1` gave a solubility (kinetic) greater than 43.6 µg/mL. In the case of `CSc1ncccc1C(=O)Nc1cc(C)ccn1`, the solubility (kinetic) is greater than 38.9 µg/mL. In turn, `N#CC1=C(N)OC2=C(C(=O)CCC2)C1c1ccc2c(c1)OCO2` (stereo not given) came in with a solubility (kinetic) of 16.5 µg/mL (≈ 53.2 µM). The molecule `Cc1ccc(SCC(=O)NCCc2ccccc2)cc1` showed a kinetic solubility of 20.7 µg/mL (≈ 72.5 µM).

For the molecule `O=C(O)c1cccc([N+](=O)[O-])c1C(=O)Nc1nc2ccccc2s1`, the solubility (kinetic) was greater than 51.5 µg/mL. Take `CC(=O)c1c(C)n(-c2ccccc2Br)c2ccc(O)cc12`: the kinetic solubility was found to be 1 µg/mL (≈ 2.91 µM).

For the molecule `CC1CCN(C(=O)COC(=O)c2ccc3c(c2)OCCO3)CC1`, the kinetic solubility is greater than 47.9 µg/mL. `CC(C)c1ccc(NC(=O)c2ccccc2NC(=O)C2CCCCC2C(=O)O)cc1` (stereo not given): the solubility (kinetic) worked out at 55.3 µg/mL (≈ 135 µM). `O=C(/C=C/NCc1cccnc1)c1ccc(Br)cc1`: the kinetic solubility was greater than 47.6 µg/mL. `O=C(Cn1ccc([N+](=O)[O-])n1)NCc1ccccc1` returned a solubility (kinetic) greater than 39 µg/mL. In the case of `COc1ccc(Nc2nc(N)c([N+](=O)[O-])c(NCCO)n2)cc1` it was 46.4 µg/mL (≈ 145 µM).

Turning to `O=C(c1ccccc1)N1CCN(C(=O)C2CC2)CC1`, the kinetic solubility was found to be 38.2 µg/mL (≈ 148 µM). For `O=C(NC1CCCCC1)c1ccc(-c2ccccc2F)o1`, the solubility (kinetic) was determined as 5 µg/mL (≈ 17.4 µM). Against the preceding molecule, the solubility kinetic is about 7.6-fold lower. On to `CCNC(=O)C(=O)Nc1ccc(OC)c(Cl)c1`, for which the solubility (kinetic) was 2.4 µg/mL (≈ 9.35 µM). `O=C(O)CCC(=O)Nc1nc2nccc(-c3ccccc3)n2n1` registered a solubility (kinetic) greater than 46.7 µg/mL. With `O=C(NNC(=O)C1CCN(S(=O)(=O)c2ccccc2)CC1)c1ccccc1O`, the kinetic solubility was greater than 60.5 µg/mL.

Consider `CN1C(=O)N(C)c2cccc3cccc1c23`, for which the solubility (kinetic) amounted to 0.8 µg/mL (≈ 3.77 µM).

With `Cc1noc(C)c1NC(=O)N1CCN(Cc2ccccc2)CC1`, the kinetic solubility is greater than 47.2 µg/mL.
